One may read the IC50 as the concentration needed to halve the response being measured. Usually inhibition stands for the share of the control response that was lost under treatment. What is called bioavailability is the share of a dose that reaches the circulation, judged against a reference dose that is usually intravenous. Low readings indicate poor availability, high ones good availability. Broadly, the TGI is the reduction of tumour growth relative to the control group.

The source made the active and inactive calls. No cut-off for these calls is given here. Some results are limits rather than exact numbers.

Results on three compounds are retold here after ChEMBL document CHEMBL4842385, “Indirubin Derivatives as Dual Inhibitors Targeting Cyclin-Dependent Kinase and Histone Deacetylase for Treating Cancer” (J Med Chem, 2021).

For data set [1], the target named is T1, Protein deacetylase HDAC6 (Homo sapiens, UniProt Q9UBN7).
T1 sequence (Q9UBN7 whole entry): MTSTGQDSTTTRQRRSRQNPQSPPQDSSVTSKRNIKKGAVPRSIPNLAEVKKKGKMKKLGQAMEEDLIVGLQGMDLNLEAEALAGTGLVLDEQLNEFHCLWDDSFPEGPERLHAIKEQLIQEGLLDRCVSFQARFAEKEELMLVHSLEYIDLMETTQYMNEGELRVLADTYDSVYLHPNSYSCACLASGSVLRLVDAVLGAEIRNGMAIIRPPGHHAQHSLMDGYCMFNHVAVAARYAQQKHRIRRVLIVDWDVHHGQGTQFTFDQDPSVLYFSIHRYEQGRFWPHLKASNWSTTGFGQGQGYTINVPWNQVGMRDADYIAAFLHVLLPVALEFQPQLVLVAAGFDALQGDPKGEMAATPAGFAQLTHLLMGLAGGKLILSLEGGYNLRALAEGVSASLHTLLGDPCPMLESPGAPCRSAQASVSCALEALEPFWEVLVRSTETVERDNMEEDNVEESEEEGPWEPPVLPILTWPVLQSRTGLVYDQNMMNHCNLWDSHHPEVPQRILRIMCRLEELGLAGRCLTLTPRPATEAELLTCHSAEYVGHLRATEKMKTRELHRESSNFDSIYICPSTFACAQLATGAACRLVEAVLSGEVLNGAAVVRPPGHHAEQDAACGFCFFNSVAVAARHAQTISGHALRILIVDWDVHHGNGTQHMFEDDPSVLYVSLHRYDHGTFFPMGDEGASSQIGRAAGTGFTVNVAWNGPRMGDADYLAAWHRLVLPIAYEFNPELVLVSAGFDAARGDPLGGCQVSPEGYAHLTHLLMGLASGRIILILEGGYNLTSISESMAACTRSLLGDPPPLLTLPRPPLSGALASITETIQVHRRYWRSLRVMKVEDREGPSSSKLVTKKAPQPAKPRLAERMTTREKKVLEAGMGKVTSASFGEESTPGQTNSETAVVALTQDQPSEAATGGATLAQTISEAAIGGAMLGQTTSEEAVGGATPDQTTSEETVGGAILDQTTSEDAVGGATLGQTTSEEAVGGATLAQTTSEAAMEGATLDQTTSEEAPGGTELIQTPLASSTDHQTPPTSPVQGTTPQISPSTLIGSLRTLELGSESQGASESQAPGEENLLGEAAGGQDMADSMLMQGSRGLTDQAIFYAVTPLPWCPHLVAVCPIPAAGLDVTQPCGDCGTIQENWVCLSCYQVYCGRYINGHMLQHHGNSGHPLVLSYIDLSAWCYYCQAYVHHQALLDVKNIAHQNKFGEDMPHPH
Briefly: Inhibition of recombiant human HDAC6 using fluorogenic HDAC substrate 3 measured after 30 mins by fluorescence microplate reader assay.

A further data set deals with CDK4/Cyclin D3 (Homo sapiens, UniProt P11802). Briefly: Inhibition of full length human CDK4 (1 to 303 residues)/N-terminal GST-fusion tagged CyclinD3 (1 to 292 residues) expressed in baculovirus expression system preincubated for 10 mins followed by substrate and ATP addition by mobility shift assay.
Data set [2] deals with CDK4/Cyclin D3 (Homo sapiens) (UniProt P11802+P30281). As to conditions: dose 100.0 nM, time 10.0 min.
The next data set deals with Histone deacetylase 5 (Homo sapiens, UniProt Q9UQL6). Briefly: Inhibition of HDAC5 (unknown origin) measured after 30 mins by fluorescence microplate reader assay.
The target of the next data set is Histone deacetylase 9 (Homo sapiens, UniProt Q9UKV0). Briefly: Inhibition of recombinant human HDAC9 measured after 30 mins by fluorescence microplate reader assay.
For data set [3], the target named is NAD-dependent protein deacetylase sirtuin-2 (Homo sapiens, UniProt Q8IXJ6). In words: Inhibition of recombinant human SIRT2 measured after 30 mins by fluorescence microplate reader assay.
Data set [4] addresses NAD-dependent protein deacylase sirtuin-5, mitochondrial (Homo sapiens, UniProt Q9NXA8). Briefly: Inhibition of recombinant human SIRT5 measured after 30 mins by fluorescence microplate reader assay.
The subject of the next data set is HepG2. In words: Antiproliferative activity against human HepG2 cells assessed as cell growth inhibition measured after 48 hrs by CCK8 assay. The format is functional, cell-based. As to conditions: HepG2, 48 h. On the technique in general: Formazan colour is commonly taken as a measure of viable cells.
A further data set concerns HeLa. Briefly: Antiproliferative activity against human HeLa cells assessed as cell growth inhibition measured after 48 hrs by CCK8 assay. The format is functional, cell-based.
Data set [5] has as its system K562. Briefly: Antiproliferative activity against human K562 cells assessed as cell growth inhibition measured after 48 hrs by CCK8 assay. The format is functional, cell-based. As to conditions: K562, 48 h.
Data set [6] has as its system A549. In words: Antiproliferative activity against human A549 cells assessed as cell growth inhibition measured after 48 hrs by CCK8 assay. As to conditions: A549, 48 h. The format is functional, cell-based.
Data set [7] has as its system K562. Briefly: Induction of apoptosis in human K562 cells assessed as increase in sum of early and late apoptotic cells at 2.5 to 10 uM measured after 48 hrs by Annexin-V/FITC-propidium iodide staining based flow cytometry analysis. The format is functional, cell-based. As to conditions: dose 2.5-10 µM. Background: Flow cytometry measures light scatter and fluorescence of single cells or particles in a stream.

Data set [8] deals with T2, Protein deacetylase HDAC6 (Homo sapiens) (UniProt Q9UBN7).
T2 sequence (whole entry): T1 sequence (Q9UBN7 whole entry)
Briefly: Inhibition of HDAC6 in human A549 cells assessed as accumulation of acetylation of H4 at 1 to 10 uM measured after 48 hrs by Western blot analysis. The format is cell-based. Conditions: dose 1-10 µM.

Data set [9] concerns the target Cyclin-dependent kinase 2/4/6 (Homo sapiens) (UniProt P11802+P24941+Q00534). In words: Inhibition of CDK2/4/6 in human A549 cells assessed as decrease in Rb phosphorylation at 10 uM incubated for 24 hrs followed by compound washout by DAPI staining based immunofluorescence assay. The format is cell-based.
Data set [10] has as its target T2, Protein deacetylase HDAC6 (Homo sapiens). Briefly: Inhibition of HDAC6 in human A549 cells assessed as increase in alpha tubulin acetylation at 10 uM incubated for 24 hrs followed by compound washout by DAPI staining based immunofluorescence assay. The format is cell-based.
Data set [11] can be described thus: Bioavailability in Sprague-Dawley rat at 50 mg/kg, ip measured up to 24 hrs by LC-MS analysis. The format is ADME, organism-based. As to conditions: in vivo.
Data set [12] concerns A549. In words: Antitumor activity against human A549 cells xenografted in BALB/c nude mouse assessed as tumor growth inhibition at 0.75 to 1.5 mg, IT (intratumoral) administered for 21 consecutive days relative to control. The format is functional. Conditions: dose 0.75-1.5 mg, time 21 day.
Data set [13] concerns A549. Briefly: Antitumor activity against human A549 cells xenografted in BALB/c nude mouse assessed as reduction in tumor volume at 0.75 to 1.5 mg, IT (intratumoral) administered for 21 consecutive days. The format is functional, cell-based. As to conditions: dose 0.75-1.5 mg, time 21.0 day. In general terms: Xenograft models place foreign cells or tissue in a host animal.

The subject of data set [14] is A549. In words: Antitumor activity against human A549 cells xenografted in BALB/c nude mouse assessed as reduction in tumor weight at 0.75 to 1.5 mg, IT (intratumoral) administered for 21 consecutive days. The format is functional, cell-based. As to conditions: dose 0.75-1.5 mg, time 21.0 day.
Data set [15] is described as follows: Toxicity in BALB/c nude mouse xenografted with human A549 cells assessed as body weight loss at 25 to 50 mg/kg, iv administered for 21 consecutive days. The format is organism-based. Conditions: in vivo, 504 h, dose 25-50 mg/kg, time 21 day.
Data set [16] in a line: Toxicity in BALB/c nude mouse xenografted with human A549 cells assessed as adverse effect at 25 to 50 mg/kg, iv administered for 21 consecutive days. The format is organism-based. As to conditions: in vivo, 504 h, dose 25-50 mg/kg, time 21 day.

Sequence of Histone deacetylase 5 (Q9UQL6 whole entry): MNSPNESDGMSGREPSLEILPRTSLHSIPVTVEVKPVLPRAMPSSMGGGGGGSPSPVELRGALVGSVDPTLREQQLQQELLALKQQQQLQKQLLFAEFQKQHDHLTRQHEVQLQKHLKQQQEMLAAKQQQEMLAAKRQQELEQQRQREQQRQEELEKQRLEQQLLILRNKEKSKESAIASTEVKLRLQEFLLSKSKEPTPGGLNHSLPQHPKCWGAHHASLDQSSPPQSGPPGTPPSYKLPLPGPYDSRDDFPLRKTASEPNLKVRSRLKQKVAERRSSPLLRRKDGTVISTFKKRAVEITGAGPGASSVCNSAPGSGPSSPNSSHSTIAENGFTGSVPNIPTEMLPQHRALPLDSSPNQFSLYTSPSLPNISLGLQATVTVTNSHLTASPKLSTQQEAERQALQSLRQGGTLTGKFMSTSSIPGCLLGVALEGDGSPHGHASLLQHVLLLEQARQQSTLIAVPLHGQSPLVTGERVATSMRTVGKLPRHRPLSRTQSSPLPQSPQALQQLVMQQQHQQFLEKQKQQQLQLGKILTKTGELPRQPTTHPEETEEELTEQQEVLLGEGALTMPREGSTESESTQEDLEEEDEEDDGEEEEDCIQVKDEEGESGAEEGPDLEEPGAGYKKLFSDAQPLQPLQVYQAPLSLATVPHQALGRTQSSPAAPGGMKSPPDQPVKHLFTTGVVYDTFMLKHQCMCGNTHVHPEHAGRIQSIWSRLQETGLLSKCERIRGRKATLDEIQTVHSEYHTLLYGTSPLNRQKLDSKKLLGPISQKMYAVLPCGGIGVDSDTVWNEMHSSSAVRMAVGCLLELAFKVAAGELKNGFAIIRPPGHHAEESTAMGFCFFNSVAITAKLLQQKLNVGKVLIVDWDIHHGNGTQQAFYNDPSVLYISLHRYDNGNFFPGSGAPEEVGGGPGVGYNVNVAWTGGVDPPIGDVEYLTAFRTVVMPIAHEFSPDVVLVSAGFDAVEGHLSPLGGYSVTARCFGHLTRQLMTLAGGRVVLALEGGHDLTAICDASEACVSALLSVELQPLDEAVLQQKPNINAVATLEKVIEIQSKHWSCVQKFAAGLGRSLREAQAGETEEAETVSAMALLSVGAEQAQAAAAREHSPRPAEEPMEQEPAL
Sequence of Histone deacetylase 9 (Q9UKV0 whole entry): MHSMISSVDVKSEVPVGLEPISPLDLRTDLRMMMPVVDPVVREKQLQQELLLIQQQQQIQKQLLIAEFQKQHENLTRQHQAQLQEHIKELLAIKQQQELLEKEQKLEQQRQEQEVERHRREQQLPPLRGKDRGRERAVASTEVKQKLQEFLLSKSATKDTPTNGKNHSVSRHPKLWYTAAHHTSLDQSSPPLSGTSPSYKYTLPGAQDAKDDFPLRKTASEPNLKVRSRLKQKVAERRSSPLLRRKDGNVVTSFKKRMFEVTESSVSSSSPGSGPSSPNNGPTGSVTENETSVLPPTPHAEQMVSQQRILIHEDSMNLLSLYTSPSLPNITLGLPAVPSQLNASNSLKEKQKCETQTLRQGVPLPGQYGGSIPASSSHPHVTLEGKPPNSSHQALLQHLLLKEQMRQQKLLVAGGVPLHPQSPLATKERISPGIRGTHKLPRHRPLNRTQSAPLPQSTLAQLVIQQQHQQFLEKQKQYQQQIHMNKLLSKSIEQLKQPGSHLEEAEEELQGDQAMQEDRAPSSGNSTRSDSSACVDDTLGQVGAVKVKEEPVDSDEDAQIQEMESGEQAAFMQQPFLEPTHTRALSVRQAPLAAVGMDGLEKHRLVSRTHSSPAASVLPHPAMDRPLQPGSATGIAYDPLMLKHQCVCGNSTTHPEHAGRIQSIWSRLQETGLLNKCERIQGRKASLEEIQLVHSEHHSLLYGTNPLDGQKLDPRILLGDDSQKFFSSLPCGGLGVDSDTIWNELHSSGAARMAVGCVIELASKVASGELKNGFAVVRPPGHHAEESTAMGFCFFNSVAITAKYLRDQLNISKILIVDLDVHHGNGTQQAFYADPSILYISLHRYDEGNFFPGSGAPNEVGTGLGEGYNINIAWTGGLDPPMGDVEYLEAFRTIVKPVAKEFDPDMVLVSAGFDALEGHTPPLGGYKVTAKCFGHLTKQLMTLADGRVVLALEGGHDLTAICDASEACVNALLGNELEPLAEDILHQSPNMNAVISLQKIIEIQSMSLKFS
Sequence of CDK4/Cyclin D3 (P11802 whole entry, the tested form may be a part): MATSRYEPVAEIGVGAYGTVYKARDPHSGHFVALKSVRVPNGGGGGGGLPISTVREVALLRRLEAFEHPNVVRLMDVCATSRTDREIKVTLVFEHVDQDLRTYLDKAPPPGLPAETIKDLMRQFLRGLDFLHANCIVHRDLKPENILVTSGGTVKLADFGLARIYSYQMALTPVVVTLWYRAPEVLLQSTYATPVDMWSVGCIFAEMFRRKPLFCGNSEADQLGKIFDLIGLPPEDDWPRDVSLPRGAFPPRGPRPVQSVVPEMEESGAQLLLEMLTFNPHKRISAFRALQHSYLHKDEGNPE
Sequence of CDK4/Cyclin D3 (P30281 whole entry, further chain, the tested form may be a part): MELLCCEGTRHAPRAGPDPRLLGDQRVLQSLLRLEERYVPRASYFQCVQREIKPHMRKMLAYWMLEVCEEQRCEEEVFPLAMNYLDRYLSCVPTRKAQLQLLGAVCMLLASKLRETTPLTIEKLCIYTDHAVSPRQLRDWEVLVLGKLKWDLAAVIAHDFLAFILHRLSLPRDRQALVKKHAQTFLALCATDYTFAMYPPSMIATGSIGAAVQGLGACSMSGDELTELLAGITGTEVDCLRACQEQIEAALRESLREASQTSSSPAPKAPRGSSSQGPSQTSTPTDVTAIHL
Sequence of NAD-dependent protein deacylase sirtuin-5, mitochondrial (Q9NXA8 whole entry): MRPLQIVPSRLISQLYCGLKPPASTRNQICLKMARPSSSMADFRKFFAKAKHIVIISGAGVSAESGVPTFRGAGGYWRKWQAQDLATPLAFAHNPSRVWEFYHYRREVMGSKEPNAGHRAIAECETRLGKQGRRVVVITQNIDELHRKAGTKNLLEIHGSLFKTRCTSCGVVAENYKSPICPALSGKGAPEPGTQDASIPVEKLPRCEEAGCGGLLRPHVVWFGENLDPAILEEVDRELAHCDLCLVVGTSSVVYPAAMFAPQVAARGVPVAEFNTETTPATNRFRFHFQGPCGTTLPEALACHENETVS
Sequence of NAD-dependent protein deacetylase sirtuin-2 (Q8IXJ6 whole entry): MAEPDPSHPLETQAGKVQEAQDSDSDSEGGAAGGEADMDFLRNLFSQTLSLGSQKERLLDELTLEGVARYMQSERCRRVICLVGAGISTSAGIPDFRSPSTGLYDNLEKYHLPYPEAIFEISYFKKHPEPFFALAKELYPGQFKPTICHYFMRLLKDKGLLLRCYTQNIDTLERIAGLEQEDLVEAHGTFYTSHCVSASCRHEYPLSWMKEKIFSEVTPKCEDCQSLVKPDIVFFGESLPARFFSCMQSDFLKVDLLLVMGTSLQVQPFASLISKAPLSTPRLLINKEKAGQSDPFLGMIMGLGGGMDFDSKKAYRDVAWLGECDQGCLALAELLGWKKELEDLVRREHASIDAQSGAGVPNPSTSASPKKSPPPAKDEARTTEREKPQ

With `C#CCN1C(=O)/C(=C2\Nc3ccccc3\C2=N/OCCCC(=O)NO)c2ccccc21`, the IC50 was 1.87 µM in data set [1] and greater than 1 µM at CDK4/Cyclin D3. Further, in data set [2], the inhibition came out at 3.9%.

Regarding `O=C(CCCO/N=C1/C(=C2/C(=O)Nc3ccccc32)Nc2ccccc21)NO`, the IC50 at Histone deacetylase 5 was greater than 5 µM; in data set [1], 0.129 µM; on Histone deacetylase 9 it was greater than 5 µM; in [3] it was greater than 100 µM; in data set [4] it was greater than 100 µM; at CDK4/Cyclin D3, 0.276 µM. Moreover, the half-maximal inhibitory concentration (IC50) turned out to be 5.7 µM in the data set with HepG2, 0.8 µM in the data set with HeLa, 2.5 µM with K562 [5] and 2 µM with A549 [6]. The result in the data set with K562 [7], in the data set with A549 [13] and with A549 [14] was Active. In addition, the inhibition result in data set [8] is “inactive”. Also, the inhibition entry in data set [9] and in data set [10] was “Active” in each case. Moreover, the bioavailability in data set [11] stood at 13%. For the same compound, in the data set on A549 [12], the TGI is 67.1%. In addition, the Activity result in data set [15] and in [16] was “Non-Toxic” in each case. The inhibition in data set [2] is 30.2%.

As for `O=C(O)CCCO/N=C1/C(=C2/C(=O)Nc3ccccc32)Nc2ccccc21`, the concentration for half-maximal inhibition (IC50) was greater than 5 µM against Histone deacetylase 5; greater than 5 µM in data set [1]; greater than 5 µM on Histone deacetylase 9; greater than 100 µM in data set [3]; greater than 100 µM in data set [4]; greater than 10 µM with HepG2. Moreover, the IC50 in the data set on HeLa, with K562 [5] and in the data set on A549 [6] was greater than 10 µM in each case.
